Reference: PubChem BioAssay (NCI)
≈ marks a conversion by molar mass, not a printed value. Where “and” joins values, the source holds several entries; their conditions need not be identical. Equal entries are not always repeated.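 Following 48 hours of exposure in 96-well plates, responses at five concentrations were used to interpolate endpoints linearly. GI50 marks 50% less growth. Definition used: TGI = concentration required for complete inhibition of growth.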 Calls of active or inactive are those of the source. No stated cut-off is given here; in the data, active means GI50 below about 0.43 µM; inactive means the rest.

How the values were obtained:
Assay in all cases: inhibition of tumour cell growth, NCI panel, 48 h
UACC-257 melanoma = test system: UACC-257 melanoma
IGROV1 ovarian = test system: IGROV1 ovarian
786-0 renal = test system: 786-0 renal
HT29 colon = test system: HT29 colon
XF 498 CNS = test system: XF 498 CNS
CAKI-1 renal = test system: CAKI-1 renal
SNB-75 CNS = test system: SNB-75 CNS
OVCAR-8 ovarian = test system: OVCAR-8 ovarian
OVCAR-5 ovarian = test system: OVCAR-5 ovarian

| Compound | GI50 (UACC-257 melanoma) [µg/mL] | TGI (UACC-257 melanoma) | GI50 (IGROV1 ovarian) [µg/mL] | TGI (IGROV1 ovarian) | GI50 (786-0 renal) [µg/mL] | TGI (786-0 renal) | GI50 (HT29 colon) [µg/mL] | TGI (HT29 colon) | TGI (XF 498 CNS) [µM] | outcome (XF 498 CNS) | TGI (CAKI-1 renal) [µM] | GI50 (SNB-75 CNS) [µg/mL] | TGI (SNB-75 CNS) | GI50 (OVCAR-8 ovarian) [µg/mL] | TGI (OVCAR-8 ovarian) | GI50 (OVCAR-5 ovarian) [µg/mL] | TGI (OVCAR-5 ovarian) |
| --- | --- | --- | --- | --- | --- | --- | --- | --- | --- | --- | --- | --- | --- | --- | --- | --- | --- |
| O=C(Nc1ccc(Cl)cc1)NS(=O)(=O)c1ccc2c(c1)CCC2 | 27.8 (≈ 79.2 µM) | > 100 µM and 80.6 µg/mL | 4.37 (≈ 12.5 µM) | 94.3 µM and 18.7 µg/mL | 21.1 (≈ 60 µM) | > 100 µM and 40.5 µg/mL | 19.7 (≈ 56.2 µM) | > 100 µM and 43.4 µg/mL | > 100 | inactive | > 100 | 28.1 (≈ 80.1 µM) | > 100 µM and 64.7 µg/mL | 18.8 (≈ 53.5 µM) | > 100 µM and 44.2 µg/mL | 20 (≈ 57 µM) | > 91 µM and 39.3 µg/mL |
| C=C1C(=O)OC2C1C(OC(=O)/C(=C/C)COC(C)=O)CC1(CO1)C1C(OC(=O)/C(=C/C)CO)C=C(C)C21 (stereo unspecified) | – | 6.99 µM | – | 3.82 µM | – | 3.09 µM | – | 7.48 µM | 3.78 | – | 2.13 | – | 15.6 µM | – | 25.3 µM | – | 25.9 µM |
| CC(=O)OC1COC(N2C(=O)C(=O)c3c(C)cc(Cl)nc32)C(OC(C)=O)C1OC(C)=O (stereo unspecified) | – | > 100 µM | – | > 100 µM | – | > 100 µM | – | > 100 µM | > 100 | – | > 100 | – | > 100 µM | – | > 100 µM | – | > 100 µM |
| C[N+](C)(C)CC(=O)N/N=C(/C=C/c1ccccc1)CC1OC(=O)c2ccccc21 (stereo unspecified) | – | > 100 µM | – | > 100 µM | – | > 100 µM | – | > 10 µM | > 100 | – | > 100 | – | > 100 µM | – | > 100 µM | – | > 10 µM |
| CCCOC(=O)C1CCC(=O)N1C(=O)C(Cl)Cl (stereo unspecified) | – | > 100 µM | – | > 100 µM | – | > 100 µM | – | > 100 µM | > 100 | – | > 100 | – | > 100 µM | – | > 100 µM | – | > 100 µM |
| COC1OC(OC)C2C(c3c(C)cc(C)cc3C)=NOC12 (stereo unspecified) | – | > 100 µM | – | > 100 µM | – | > 100 µM | – | > 100 µM | > 100 | – | > 100 | – | > 100 µM | – | > 100 µM | – | > 100 µM |
| N#Cc1c([N+](=O)[O-])cc(C(F)(F)F)cc1[N+](=O)[O-] | – | 19.2 µM | – | 20.8 µM | – | 12.7 µM | – | 9.36 µM | 3.54 | – | 8.94 | – | 20.1 µM | – | 4.36 µM | – | 32.5 µM |
